Measured values published in patent publication US4822818A, “Bicycle compounds, their production and use” (Takeda Chemical Industries, Ltd., priority 1980, dated 1989).
Counter-ions that a name gives are not always drawn.

Columns and labels:
[1] = target: T1, Angiotensin I Converting Enzyme (ACE) (Oryctolagus cuniculus, UniProt P12822); test: Inhibition of Angiotensin I Converting Enzyme (ACE), substrate hippuryl-L-histidyl-L-leucine (HHL), hippuric acid produced; format: biochemical; details: pH 8.3, 37° C., one hour, read-out: Inhibitory Activity on ACE; for inhibition at 1 µM: Concentration 1 μM; for inhibition at 10 µM: Concentration 10 μM
T1 sequence (P12822 34-1310): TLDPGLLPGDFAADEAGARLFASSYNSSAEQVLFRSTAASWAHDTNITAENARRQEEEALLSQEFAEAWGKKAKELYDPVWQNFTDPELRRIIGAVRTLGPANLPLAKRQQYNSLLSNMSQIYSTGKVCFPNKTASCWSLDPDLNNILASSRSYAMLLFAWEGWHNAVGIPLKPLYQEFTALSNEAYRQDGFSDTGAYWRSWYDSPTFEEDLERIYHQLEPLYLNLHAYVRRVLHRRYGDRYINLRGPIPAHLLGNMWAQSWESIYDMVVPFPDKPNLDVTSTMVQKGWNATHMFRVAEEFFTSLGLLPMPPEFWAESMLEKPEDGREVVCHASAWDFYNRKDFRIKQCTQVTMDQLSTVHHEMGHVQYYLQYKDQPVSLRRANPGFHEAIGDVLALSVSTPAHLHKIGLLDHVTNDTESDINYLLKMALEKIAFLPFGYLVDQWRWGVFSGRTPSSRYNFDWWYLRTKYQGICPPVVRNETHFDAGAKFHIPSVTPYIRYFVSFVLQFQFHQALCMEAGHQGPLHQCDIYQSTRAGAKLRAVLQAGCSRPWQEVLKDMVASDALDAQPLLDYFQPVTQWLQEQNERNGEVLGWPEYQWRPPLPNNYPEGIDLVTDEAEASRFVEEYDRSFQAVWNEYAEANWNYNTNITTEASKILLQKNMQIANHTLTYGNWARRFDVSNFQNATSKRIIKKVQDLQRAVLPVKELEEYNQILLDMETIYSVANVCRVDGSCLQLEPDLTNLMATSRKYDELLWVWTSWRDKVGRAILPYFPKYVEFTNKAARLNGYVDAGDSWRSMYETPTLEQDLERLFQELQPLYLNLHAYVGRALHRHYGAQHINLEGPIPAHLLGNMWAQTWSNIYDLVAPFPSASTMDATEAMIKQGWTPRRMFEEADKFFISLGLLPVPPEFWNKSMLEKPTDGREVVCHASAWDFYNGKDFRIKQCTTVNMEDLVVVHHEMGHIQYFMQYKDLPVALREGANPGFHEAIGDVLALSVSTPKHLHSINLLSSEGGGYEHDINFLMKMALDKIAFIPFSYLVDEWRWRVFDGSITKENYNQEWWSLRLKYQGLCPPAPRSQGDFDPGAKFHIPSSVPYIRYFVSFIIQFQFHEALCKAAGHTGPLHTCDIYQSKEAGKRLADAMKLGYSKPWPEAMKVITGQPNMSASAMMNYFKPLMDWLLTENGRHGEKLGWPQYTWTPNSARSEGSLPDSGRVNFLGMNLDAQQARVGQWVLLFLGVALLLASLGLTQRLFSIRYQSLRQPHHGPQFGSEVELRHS
Procedure: Inhibitions of Angiotensin I Converting Enzyme (ACE) by the Compounds of this Invention. The experiment was conducted in accordance with a modification of the method described by Cushman et al. [Biochemical Pharmacology, Vol. 20, 1637(1971)]. That is, using hippuryl-L-histidyl-L-leucine(HHL) as the substrate, the ACE inhibitory activity was determined in terms of percent inhibition on the amount of hippuric acid produced by ACE when the present compound was added. […] In this experiment, a potassium phosphate buffer solution containing dimethyl sulfoxide at a concentration equal to that of the test solution was used as a control. After incubating the solution at 37° C. for one hour, 150 μl of 1N hydrochloric acid was added to the solution to terminate the reaction. After 1 ml of ethyl acetate was added, the solution was centrifuged at 3000 r.p.m. for 10 minutes. A 0.5 ml aliquot was separated from the ethyl acetate layer and dried at a temperature below 50° C. under nitrogen gas streams. The residue was mixed with 5 ml of 1M aqueous sodium chloride and the mixture was subjected to colorimetry at a wavelength of 228 nm.

Angiotensin I = test: Effect of present compounds against hypertensive activity of angiotensin I in rats, oral administration; format: in vivo, Male rats (Sprague-Dawley); details: rat, oral 13.8 μM/kg, angiotensin I 300 ng/kg i.v., corrected by angiotensin II reaction; for Percent Inhibition against Hypertensive Reaction by Angiotensin I, After 20 min.: 20 min after administration; for Percent Inhibition against Hypertensive Reaction by Angiotensin I, After 60 min.: 60 min after administration; for Percent Inhibition against Hypertensive Reaction by Angiotensin I, After 120 min.: 120 min after administration
Procedure: Effect of Present Compounds against Hypertensive Activity of Angiotensin I
Male rats (Sprague-Dawley) weighing 250 g to 350 g which were fed under free access to drinking water and feeds were used as experimental animals. The rats were anesthetized with intraperitoneal administration of pentobarbital sodium (50 mg/kg) on the day before the test day and a polyethylene tube was inserted into each of the femoral artery for measurement of blood pressure and the femoral vein for injection of angiotensin I and II, and then the tubes were fixed.
On the test day, an average blood pressure in the control phase was recorded on an electric hemodynamometer (MP-4T model manufactured by Nippon Koden, Japan) and thereafter angiotensin I and then angiotensin II were injected through the femoral vein at a dose of 300 ng/kg and 100 ng/kg respectively, to measure the hypertensive activity. Then, 13.8 μM/kg of the compound of this invention was administered orally as an aqueous solution or an aqueous gum arabic suspension, and 20, 60 and 120 minutes after the administration, angiotensin I and II were injected repeatedly to trace hypertensive reactions. In calculating the percent inhibition to the hypertensive activity of angiotensin I, the percent inhibitory value was corrected based on the variation with time in the hypertensive reaction by angiotensin II.

Structure (SMILES) | inhibition at 1 µM [1] | inhibition at 10 µM [1] | Percent Inhibition against Hypertensive Reaction by Angiotensin I, After 20 min. (Angiotensin I) | Percent Inhibition against Hypertensive Reaction by Angiotensin I, After 60 min. (Angiotensin I) | Percent Inhibition against Hypertensive Reaction by Angiotensin I, After 120 min. (Angiotensin I)
CCOC(=O)C(CCc1ccccc1)N[C@@H](C)C(=O)N(CC(=O)O)C1Cc2ccccc2C1.Cl (stereo partly drawn) [Example 1, N-(1-ethoxycarbonyl-3-phenylpropyl)-L-alanyl-N-(indan-2-yl)glycine hydrochloride] | 87% | 97% | 93% | 88% | 77%
CCCOC(=O)C(CCc1ccccc1)N[C@@H](C)C(=O)N(CC(=O)O)C1Cc2ccccc2C1.Cl (stereo partly drawn) [Example 7, N-(1-propoxycarbonyl-3-phenylpropyl)-L-alanyl-N-(indan-2-yl)glycine hydrochloride] | 91% | 97% | 84% | 91% | 96%
CCCCOC(=O)C(CCc1ccccc1)N[C@@H](C)C(=O)N(CC(=O)O)C1Cc2ccccc2C1 (stereo partly drawn) [Example 8, N-(1-butoxycarbonyl-3-phenylpropyl)-L-alanyl-N-(indan-2-yl)glycine hydrochloride] | 69% | 99% |  |  | 
CC(C)OC(=O)C(CCc1ccccc1)N[C@@H](C)C(=O)N(CC(=O)O)C1Cc2ccccc2C1.Cl (stereo partly drawn) [Example 9, N-(1-isopropoxycarbonyl-3-phenylpropyl)-L-alanyl-N-(indan-2-yl)glycine hydrochloride] | 72% | 95% | 88% | 71% | 51%
CCOC(=O)[C@H](CCc1ccc(OC)c(OC)c1)N[C@@H](C)C(=O)N(CC(=O)O)C1Cc2ccccc2C1.Cl [Example 15, N-[1-(S)-ethoxycarbonyl-3-(3,4-dimethoxyphenyl)propyl]-L-alanyl-N-(indan-2-yl)glycine hydrochloride] |  |  | 84% | 80% | 65%
C[C@H](N[C@@H](CCc1ccccc1)C(=O)O)C(=O)N(CC(=O)O)C1Cc2ccccc2C1 [Example 19, N-(1-(S)-carboxyl-3-phenylpropyl)-L-alanyl-N-(indan-2-yl)glycine] | 95% | 98% |  |  | 
